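Here, GI50 denotes the concentration required for 50% inhibition of growth. TGI denotes the concentration required for complete inhibition of growth.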
Experiments:
Assay in all cases: NCI anticancer screen, dose series, 384-well format
[1] = tested on: K-562 leukemia
[2] = tested on: NCI-H460 NSCLC
[3] = tested on: PC-3 prostate
[4] = tested on: NCI/ADR-RES ovarian
[5] = tested on: SNB-75 CNS
[6] = tested on: COLO 205 colon
[7] = tested on: DU-145 prostate
[8] = tested on: UACC-62 melanoma
[9] = tested on: ACHN renal
[10] = tested on: HCT-15 colon
[11] = tested on: MALME-3M melanoma
[12] = tested on: OVCAR-8 ovarian
[13] = tested on: SF-268 CNS
[14] = tested on: CCRF-CEM leukemia
[15] = tested on: HCC-2998 colon
[16] = tested on: UACC-257 melanoma
[17] = tested on: MDA-MB-468 breast
[18] = tested on: TK-10 renal
[19] = tested on: MDA-MB-231 breast
[20] = tested on: OVCAR-4 ovarian
[21] = tested on: SNB-19 CNS
[22] = tested on: RXF 393 renal
[23] = tested on: OVCAR-3 ovarian
[24] = tested on: T-47D breast
[25] = tested on: SF-295 CNS
[26] = tested on: BT-549 breast
[27] = tested on: U251 glioblastoma
[28] = tested on: KM12 colon
[29] = tested on: 786-0 renal

Cc1nc(-c2cn3c(n2)-c2ccc(-c4cnn(C(C)(C)C(N)=O)c4)cc2OCC3)n(C(C)C)n1
GI50 [1]: 12.9 µM | TGI [1]: 84.8 µM | GI50 [2]: 0.134 µM | TGI [2]: 11.4 µM | GI50 [3]: 0.396 µM | TGI [3]: 12.2 µM | GI50 [4]: 13.2 µM | TGI [4]: 52.7 µM | GI50 [5]: 0.221 µM | TGI [5]: 15.3 µM | GI50 [6]: 0.396 µM | TGI [6]: 25.4 µM | GI50 [7]: 2.16 µM | TGI [7]: 17.8 µM | GI50 [8]: 0.71 µM | TGI [8]: 7.5 µM | GI50 [9]: 1.36 µM | TGI [9]: > 100 µM | GI50 [10]: 1.59 µM | TGI [10]: 23.6 µM | GI50 [11]: 0.164 µM | TGI [11]: 4.21 µM | GI50 [12]: 3.01 µM | TGI [12]: 84 µM | GI50 [13]: 3.31 µM | TGI [13]: 29.5 µM | GI50 [14]: 0.343 µM | TGI [14]: 13.7 µM | GI50 [15]: 0.831 µM | TGI [15]: 14 µM | GI50 [16]: 7.34 µM | TGI [16]: 40.7 µM | GI50 [17]: 0.147 µM | TGI [17]: 1.34 µM | GI50 [18]: 0.387 µM | TGI [18]: 19.2 µM | GI50 [19]: 5.79 µM | TGI [19]: > 100 µM | GI50 [20]: 15.2 µM | TGI [20]: 93.7 µM | GI50 [21]: 13.8 µM | TGI [21]: > 100 µM | GI50 [22]: 1.99 µM | TGI [22]: 11.3 µM | GI50 [23]: 0.398 µM | TGI [23]: 9.21 µM | GI50 [24]: < 0.01 µM | TGI [24]: 0.0399 µM | GI50 [25]: 0.95 µM | TGI [25]: 9 µM | GI50 [26]: 1.67 µM | TGI [26]: 19.9 µM | GI50 [27]: 3.56 µM | TGI [27]: > 100 µM | GI50 [28]: 3.72 µM | TGI [28]: 17 µM | GI50 [29]: 2.6 µM | TGI [29]: 87.3 µM
